Laboratory results taken from US20260001889A1, “COMPOSITIONS USEFUL FOR MODULATING SPLICING” (Skyhawk Therapeutics, Inc., priority 2022, published 2026).

Legend:
[1] = test system: ATXN3 transcripts containing exon 4; test: ATXN3 Quantitative Splicing Assay (qPCR, E4E5 primers/probe); type: cell-based; conditions: Homo sapiens, SK-N-MC cells, compounds for 24 h
In short: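 Exon 4-containing ATXN3 transcripts are quantified by TaqMan qPCR (E4E5 primers/probe) on cell-lysate cDNA, with total ATXN3 from the E8E9 set. Source cells: human neuroblastoma SK-N-MC, exposed for 24 h to compound at 30 μM down to 0.6 nM.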

total ATXN3 protein = test: ATXN3 Total Protein Assay (Mesoscale Discovery, SK-N-MC cells); type: cell-based, Human; conditions: incubation for 48 hours, MSD assay
In short: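 Readout: MSD electrochemiluminescence immunoassay of lysates, calibrated with recombinant ATXN3 and using mouse/rabbit anti-ATXN3 antibody pair. Cells (SK-N-MC, human) were exposed for 48 h to compound doses between 30 μM and 0.6 nM.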

ATXN3-HiBiT protein = test: ATXN3 Total Protein Assay (Kelly-ATXN3-HiBiT luminescence); type: cell-based; conditions: Kelly-ATXN3-HiBiT cells, 48 h after addition of compound
In short: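 Endogenous ATXN3-HiBiT protein in knock-in Kelly neuroblastoma cells measured by lytic HiBiT luminescence 48 h post-compound (added 24 h after seeding 2000 cells/well). Values are fold changes relative to DMSO, with viability from a parallel CellTiter-Glo plate.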

Row | Structure (SMILES) | IC50 [1] | IC50 (total ATXN3 protein) | EC50 (ATXN3-HiBiT protein)
1 | C#Cc1cc(NCc2cccs2)c2oc(C[C@H](C)N)c(C#C)c2n1 [Compound 162, 2-[(S)-2-aminopropyl]-3,5-diethynyl-7-thenylamino-1-oxa-4-azaindene] | 0.01 to 100 nM | 0.01 to 100 nM | 101 to 500 nM
2 | C[C@H](N)Cc1oc2c(NCc3cccs3)cc(C(N)=O)nc2c1Br [Compound 288, 2-[(S)-2-aminopropyl]-3-bromo-7-thenylamino-1-oxa-4-aza-5-indenecarboxamide] | 10000 to 40000 nM | 10000 to 40000 nM | 10000 to 40000 nM
3 | C[C@H](N)Cc1oc2c(NCc3cccs3)cc(Cl)nc2c1-c1ccn(C)n1 [Compound 317, 2-[(S)-2-aminopropyl]-5-chloro-3-(1-methyl-3-pyrazolyl)-7-thenylamino-1-oxa-4-azaindene] | 10000 to 40000 nM | 10000 to 40000 nM | 501 to 5000 nM
4 | C[C@H](N)Cc1oc2c(NCc3ccccc3F)cc(Cl)nc2c1Br [Compound 340, 2-[(S)-2-aminopropyl]-3-bromo-5-chloro-7-{[(o-fluorophenyl)methyl]amino}-1-oxa-4-azaindene] | 501 to 5000 nM | 501 to 5000 nM | 501 to 5000 nM
5 | [2H]C([2H])(Nc1cc(Cl)nc2c(Br)c(C[C@H](C)N)oc12)c1cccs1 [Compound 221, 2-[(S)-2-aminopropyl]-3-bromo-5-chloro-7-{[(2-thienyl)(^2H2)methyl]amino}-1-oxa-4-azaindene] | 0.01 to 100 nM | 0.01 to 100 nM | 0.01 to 100 nM

Now from value to compound:

Row | IC50 [1] | IC50 (total ATXN3 protein) | EC50 (ATXN3-HiBiT protein) | Structure (SMILES)
6 | 0.01 to 100 nM | 101 to 500 nM | 0.01 to 100 nM | COC[C@H](N)Cc1oc2c(NCc3ccco3)cc(Cl)nc2c1Cl [Compound 52, 2-[(R)-2-amino-3-methoxypropyl]-3,5-dichloro-7-(furfurylamino)-1-oxa-4-azaindene]
7 | 0.01 to 100 nM | 0.01 to 100 nM | 0.01 to 100 nM | [2H]C([2H])(c1oc2c(NCc3cccs3)cc(Cl)nc2c1Br)[C@@H](N)COC [Compound 304, 2-[(R)-2-amino-3-methoxy(1,1- ^2H2)propyl]-3-bromo-5-chloro-7-thenylamino-1-oxa-4-azaindene]
8 | 101 to 500 nM | 101 to 500 nM | 101 to 500 nM | COC[C@H](N)Cc1oc2c(NCc3ccccc3)cc(Cl)nc2c1Cl [Compound 51, 2-[(R)-2-amino-3-methoxypropyl]-7-benzylamino-3,5-dichloro-1-oxa-4-azaindene]
9 | 0.01 to 100 nM | 0.01 to 100 nM | 0.01 to 100 nM | N[C@@H](CO)Cc1oc2c(NCc3cccs3)cc(Cl)nc2c1Cl [Compound 21, (R)-2-amino-3-(3,5-dichloro-7-thenylamino-1-oxa-4-aza-2-indenyl)-1-propanol]
10 | 10000 to 40000 nM | 10000 to 40000 nM | 10000 to 40000 nM | C[C@H](F)[C@H](N)Cc1oc2c(NCc3cccs3)cc(Cl)nc2c1-c1ccnn1C [Compound 334, 2-[(2R,3S)-2-amino-3-fluorobutyl]-5-chloro-3-(1-methyl-5-pyrazolyl)-7-thenylamino-1-oxa-4-azaindene]
11 | 501 to 5000 nM | 501 to 5000 nM | 501 to 5000 nM | N[C@H](Cc1oc2c(NCc3cccs3)cc(Cl)nc2c1Br)C1CC(F)(F)C1 [Compound 133, 2-[(R)-2-amino-2-(3,3-difluorocyclobutyl)ethyl]-3-bromo-5-chloro-7-thenylamino-1-oxa-4-azaindene]
12 | 101 to 500 nM | 101 to 500 nM | 101 to 500 nM | C[C@H](N)C(F)(F)c1oc2c(NCc3ccco3)cc(Cl)nc2c1Cl [Compound 239, 2-[(S)-2-amino-1,1-difluoropropyl]-3,5-dichloro-7-(furfurylamino)-1-oxa-4-azaindene]
13 | 101 to 500 nM | 101 to 500 nM | 501 to 5000 nM | C#Cc1c(C[C@@H](N)CC(F)(F)F)oc2c(NCc3ccco3)cc(Cl)nc12 [Compound 120, 2-[(R)-2-amino-4,4,4-trifluorobutyl]-5-chloro-3-ethynyl-7-(furfurylamino)-1-oxa-4-azaindene]
